Experimental data from patent publication US20110070232A1, “Combination Therapy with an Antitumor Alkaloid” (Pharma Mar, S.A., priority 2008, published 2011).
Like-named read-outs stand apart in the source and are kept apart here.

How the values were obtained:
Type in all cases: in vivo, mice
H-Meso-1 tumors = conditions: G4 pemetrexed 100 mg/kg/day IP
Method: (§1) Female athymic nude mice (Harlan Sprague Dawley, Madison, Wis.) were utilized for all experiments. Animals were housed in ventilated rack caging with food and water ad libitum. The mice were acclimated for at least 5 days prior to tumor implantation.
The tumor model used in this study was H-Meso-1 cell line which is a human mesothelioma cell line obtained from the DTP, DCTD tumor repository. […] Cells were implanted SC into study mice using a 1 ml syringe with a 13G trocar: 5×10^6 cells/mouse in 0.2 ml 50% Matrigel/50% RPMI medium of H-Meso-1 without serum or antibiotics. Bacterial culture was taken on cells used to implant the study.
Treatments were initiated on DPI 6.
(§2) Tumor size measurements were recorded 2-3 times/week from the treatment initiation until the termination of the study.
(§3) Mean, standard deviation and standard error of the mean were determined for tumor volume for all animal groups at all assessments. Student's t test was performed on tumor volumes at each measurement day, including at the end of the study, to determine whether there were any statistically significant differences between combination treatment groups and single monotherapy treatment groups.

CaLu-6 tumors = test system: CaLu-6 tumors
From the text: as §1
The tumor model used in this study was CaLu-6 cell line which is a human lung cell line obtained from the ATCC (Manassas, Va.). […] Cells from in vitro passage 10 were those implanted SC into study mice.
Treatments were initiated on DPI 9.
as §2, §3

NCI-H460 tumors = test system: NCI-H460 tumors
From the text: as §1
The tumor model used in this study was NCI-H460 cell line which is a human lung cell line obtained from the ATCC (Manassas, Va.). […] Cells from in vitro passage 16 were those implanted SC into study mice.
Treatments were initiated on DPI 8.
as §2, §3

[1] = day 13, G3 pemetrexed 125 mg/kg/day IP
[2] = day 13, G4 pemetrexed 100 mg/kg/day IP
[3] = day 16, G3 pemetrexed 125 mg/kg/day IP
[4] = day 16, G4 pemetrexed 100 mg/kg/day IP
[5] = day 20, G3 pemetrexed 125 mg/kg/day IP
[6] = day 20, G4 pemetrexed 100 mg/kg/day IP
[7] = day 23, G3 pemetrexed 125 mg/kg/day IP
[8] = day 23, G4 pemetrexed 100 mg/kg/day IP

Structure (SMILES): Nc1nc2[nH]cc(CCc3ccc(C(=O)N[C@@H](CCC(=O)O)C(=O)O)cc3)c2c(=O)[nH]1 [pemetrexed]
- % T/C on day 6 (H-Meso-1 tumors): 102.1%
- % T/C on day 7 (H-Meso-1 tumors): 100.2%
- % T/C on day 9 (H-Meso-1 tumors): 109.0%
- % T/C on day 12 (H-Meso-1 tumors): 105.7%
- % T/C on day 14 (H-Meso-1 tumors): 124.2%
- % T/C on day 16 (H-Meso-1 tumors): 128.6%
- % T/C on day 19 (H-Meso-1 tumors): 110.4%
- % T/C on day 22 (H-Meso-1 tumors): 100.8%
- % T/C on day 26 (H-Meso-1 tumors): 122.9%
- % Inhibition (H-Meso-1 tumors; day 6): −2.1%
- % Inhibition (H-Meso-1 tumors; day 7): −0.2%
- % Inhibition (H-Meso-1 tumors; day 9): −9.0%
- % Inhibition (H-Meso-1 tumors; day 12): −5.7%
- % Inhibition (H-Meso-1 tumors; day 14): −24.2%
- % Inhibition (H-Meso-1 tumors; day 16): −28.6%
- % Inhibition (H-Meso-1 tumors; day 19): −10.4%
- % Inhibition (H-Meso-1 tumors; day 22): −0.8%
- % Inhibition (H-Meso-1 tumors; day 26): −22.9%
- % Inhibition (H-Meso-1 tumors; day 29): −22.4%
- % T/C on day 9 (CaLu-6 tumors; G3 pemetrexed 125 mg/kg/day IP): 99.6%
- % T/C on day 16 (CaLu-6 tumors; G3 pemetrexed 125 mg/kg/day IP): 86.6%
- % T/C on day 20 (CaLu-6 tumors; G3 pemetrexed 125 mg/kg/day IP): 104.8%
- % T/C on day 23 (CaLu-6 tumors; G3 pemetrexed 125 mg/kg/day IP): 98.7%
- % T/C on day 27 (CaLu-6 tumors; G3 pemetrexed 125 mg/kg/day IP): 87.9%
- % T/C on day 30 (CaLu-6 tumors; G3 pemetrexed 125 mg/kg/day IP): 90.0%
- % T/C on day 34 (CaLu-6 tumors; G3 pemetrexed 125 mg/kg/day IP): 89.1%
- % T/C on day 42 (CaLu-6 tumors; G3 pemetrexed 125 mg/kg/day IP): 94.2%
- % T/C on day 9 (CaLu-6 tumors; G4 pemetrexed 100 mg/kg/day IP): 103.4%
- % T/C on day 13 (CaLu-6 tumors; G4 pemetrexed 100 mg/kg/day IP): 126.5%
- % T/C on day 16 (CaLu-6 tumors; G4 pemetrexed 100 mg/kg/day IP): 103.5%
- % T/C on day 20 (CaLu-6 tumors; G4 pemetrexed 100 mg/kg/day IP): 120.6%
- % T/C on day 23 (CaLu-6 tumors; G4 pemetrexed 100 mg/kg/day IP): 111.5%
- % T/C on day 27 (CaLu-6 tumors; G4 pemetrexed 100 mg/kg/day IP): 101.8%
- % T/C on day 30 (CaLu-6 tumors; G4 pemetrexed 100 mg/kg/day IP): 105.8%
- % T/C on day 34 (CaLu-6 tumors; G4 pemetrexed 100 mg/kg/day IP): 102.2%
- % T/C on day 42 (CaLu-6 tumors; G4 pemetrexed 100 mg/kg/day IP): 100.5%
- % Inhibition (CaLu-6 tumors; day 9, G3 pemetrexed 125 mg/kg/day IP): 0.4%
- % Inhibition (CaLu-6 tumors; day 9, G4 pemetrexed 100 mg/kg/day IP): −3.4%
- % Inhibition (CaLu-6 tumors; [1]): −16.6%
- % Inhibition (CaLu-6 tumors; [2]): −26.5%
- % Inhibition (CaLu-6 tumors; [3]): 13.4%
- % Inhibition (CaLu-6 tumors; [4]): −3.5%
- % Inhibition (CaLu-6 tumors; [5]): −4.8%
- % Inhibition (CaLu-6 tumors; [6]): −20.6%
- % Inhibition (CaLu-6 tumors; [7]): 1.3%
- % Inhibition (CaLu-6 tumors; [8]): −11.5%
- % Inhibition (CaLu-6 tumors; day 27, G3 pemetrexed 125 mg/kg/day IP): 12.1%
- % Inhibition (CaLu-6 tumors; day 27, G4 pemetrexed 100 mg/kg/day IP): −1.8%
- % Inhibition (CaLu-6 tumors; day 30, G3 pemetrexed 125 mg/kg/day IP): 10.0%
- % Inhibition (CaLu-6 tumors; day 30, G4 pemetrexed 100 mg/kg/day IP): −5.8%
- % Inhibition (CaLu-6 tumors; day 34, G3 pemetrexed 125 mg/kg/day IP): 10.9%
- % Inhibition (CaLu-6 tumors; day 34, G4 pemetrexed 100 mg/kg/day IP): −2.2%
- % Inhibition (CaLu-6 tumors; day 42, G3 pemetrexed 125 mg/kg/day IP): 5.8%
- % Inhibition (CaLu-6 tumors; day 42, G4 pemetrexed 100 mg/kg/day IP): −0.5%
- % T/C on day 8 (NCI-H460 tumors; G3 pemetrexed 125 mg/kg/day IP): 102.6%
- % T/C on day 10 (NCI-H460 tumors; G3 pemetrexed 125 mg/kg/day IP): 119.0%
- % T/C on day 13 (NCI-H460 tumors; G3 pemetrexed 125 mg/kg/day IP): 67.5%
- % T/C on day 16 (NCI-H460 tumors; G3 pemetrexed 125 mg/kg/day IP): 71.0%
- % T/C on day 20 (NCI-H460 tumors; G3 pemetrexed 125 mg/kg/day IP): 70.4%
- % T/C on day 23 (NCI-H460 tumors; G3 pemetrexed 125 mg/kg/day IP): 85.4%
- % T/C on day 28 (NCI-H460 tumors; G3 pemetrexed 125 mg/kg/day IP): 72.9%
- % T/C on day 31 (NCI-H460 tumors; G3 pemetrexed 125 mg/kg/day IP): 82.6%
- % T/C on day 8 (NCI-H460 tumors; G4 pemetrexed 100 mg/kg/day IP): 103.0%
- % T/C on day 10 (NCI-H460 tumors; G4 pemetrexed 100 mg/kg/day IP): 107.3%
- % T/C on day 13 (NCI-H460 tumors; G4 pemetrexed 100 mg/kg/day IP): 75.7%
- % T/C on day 16 (NCI-H460 tumors; G4 pemetrexed 100 mg/kg/day IP): 72.4%
- % T/C on day 20 (NCI-H460 tumors; G4 pemetrexed 100 mg/kg/day IP): 72.9%
- % T/C on day 23 (NCI-H460 tumors; G4 pemetrexed 100 mg/kg/day IP): 86.3%
- % T/C on day 28 (NCI-H460 tumors; G4 pemetrexed 100 mg/kg/day IP): 76.8%
- % T/C on day 31 (NCI-H460 tumors; G4 pemetrexed 100 mg/kg/day IP): 96.9%
- % Inhibition (NCI-H460 tumors; day 8, G3 pemetrexed 125 mg/kg/day IP): −2.6%
- % Inhibition (NCI-H460 tumors; day 8, G4 pemetrexed 100 mg/kg/day IP): −3.0%
- % Inhibition (NCI-H460 tumors; day 10, G3 pemetrexed 125 mg/kg/day IP): −19.0%
- % Inhibition (NCI-H460 tumors; day 10, G4 pemetrexed 100 mg/kg/day IP): −7.3%
- % Inhibition (NCI-H460 tumors; [1]): 32.5%
- % Inhibition (NCI-H460 tumors; [2]): 24.3%
- % Inhibition (NCI-H460 tumors; [3]): 29.0%
- % Inhibition (NCI-H460 tumors; [4]): 27.6%
- % Inhibition (NCI-H460 tumors; [5]): 29.6%
- % Inhibition (NCI-H460 tumors; [6]): 27.1%
- % Inhibition (NCI-H460 tumors; [7]): 14.6%
- % Inhibition (NCI-H460 tumors; [8]): 13.7%
- % Inhibition (NCI-H460 tumors; day 28, G3 pemetrexed 125 mg/kg/day IP): 27.1%
- % Inhibition (NCI-H460 tumors; day 28, G4 pemetrexed 100 mg/kg/day IP): 23.2%
- % Inhibition (NCI-H460 tumors; day 31, G3 pemetrexed 125 mg/kg/day IP): 17.4%
- % Inhibition (NCI-H460 tumors; day 31, G4 pemetrexed 100 mg/kg/day IP): 3.1%
